Laboratory results as given in article PMC4522657, “Identification of a DYRK1A Inhibitor that Induces Degradation of the Target Kinase using Co-chaperone CDC37 fused with Luciferase nanoKAZ” (Scientific Reports, 2015).

Assays:
mRNA coding for DYRK1A = experiment: Reverse transcription and quantitative PCR in HEK293 cells; assay type: cell-based; conditions: CaNDY 2 µM, four days
Description: Total RNA of the cells was isolated using Sepasol-RNA I Super G (Nacalai Tesque), and then subjected to reverse transcription with Prime Script RTase (Takara Bio). Realtime PCR was performed with FastStart Universal SYBR Green Master (Rox) (Roche Diagnostics, Basel, Switzerland) using StepOnePlus Real-Time PCR System (Applied Biosystems, Life technologies). The nucleotide sequences of the primers are as follows: the forward primer for DYRK1A, 5′-[…]-3′; the reverse primer for DYRK1A, 5′-[…]-3′; the forward primer for GAPDH, 5′-[…]-3′; and the reverse primer for GAPDH, 5′-[…]-3′.
Targeting the DYRK1A/CDC37 complex
Figure S6. Expression of endogenous DYRK1A mRNA in HEK293 cells treated with
HEK293 cells were cultured in the presence of CaNDY (2 µM) for four days, and subjected to
reverse transcription followed by quantitative PCR analysis. Bar graphs show means ± SD (n =
(1 picture or pasted object on this page, not shown here)

GST-tagged human DYRK1A = target: T1, GST-tagged human DYRK1A (Homo sapiens, UniProt Q13627); experiment: ATP kinetics assay; assay type: biochemical
T1 construct: purchased Life Technologies PV3785
Description: The kinase reaction for ATP kinetics was performed in a reaction mixture containing serially diluted inhibitors, 10 mM MOPS-KOH (pH 7.0), 10 mM magnesium acetate, 200 μM EDTA, 2.5–40 μM ATP, 0.125–0.4 μCi [γ-^32P]ATP, 5 μM DYRKtide (Anaspec, CA, USA), and 1 nM of GST-tagged human DYRK1A (Cat# PV3785, Life Technologies), for a final volume of 25 μl. The final concentration of DMSO was adjusted to 0.1%, regardless of the inhibitor concentration. The reaction mixture was incubated at 30 °C for 15 min, and phosphoric acid (final 5%) was then added to stop the reaction. 25 μL of the reaction mixture was dispensed onto P81, a phosphocellulose membrane (Whatman, GE Healthcare), and washed four times in 5% phosphoric acid. Cherenkov light from the incorporated ^32P was measured using a liquid scintillation counter. The kinase assay conditions, including the incubation period and the concentration of the kinases and substrates, were optimized to maintain linearity during the incubation. The net radioactivity was determined by subtracting the background count from the reaction mixture without kinase. The amount of incorporated ^32P was calculated from the standard line. The Km and Ki values were calculated with Prism6 software (GraphPad Software, San Diego, CA, USA) using the competitive inhibition model.

EPHA7 = target: T2, EPHA7 (Homo sapiens, UniProt Q15375); experiment: Kinase panel, CaNDY 1 µM; assay type: biochemical; conditions: CaNDY 1 µM relative to DMSO
T2 construct: purchased Carna Biosciences
T2 sequence (Q15375 28-998): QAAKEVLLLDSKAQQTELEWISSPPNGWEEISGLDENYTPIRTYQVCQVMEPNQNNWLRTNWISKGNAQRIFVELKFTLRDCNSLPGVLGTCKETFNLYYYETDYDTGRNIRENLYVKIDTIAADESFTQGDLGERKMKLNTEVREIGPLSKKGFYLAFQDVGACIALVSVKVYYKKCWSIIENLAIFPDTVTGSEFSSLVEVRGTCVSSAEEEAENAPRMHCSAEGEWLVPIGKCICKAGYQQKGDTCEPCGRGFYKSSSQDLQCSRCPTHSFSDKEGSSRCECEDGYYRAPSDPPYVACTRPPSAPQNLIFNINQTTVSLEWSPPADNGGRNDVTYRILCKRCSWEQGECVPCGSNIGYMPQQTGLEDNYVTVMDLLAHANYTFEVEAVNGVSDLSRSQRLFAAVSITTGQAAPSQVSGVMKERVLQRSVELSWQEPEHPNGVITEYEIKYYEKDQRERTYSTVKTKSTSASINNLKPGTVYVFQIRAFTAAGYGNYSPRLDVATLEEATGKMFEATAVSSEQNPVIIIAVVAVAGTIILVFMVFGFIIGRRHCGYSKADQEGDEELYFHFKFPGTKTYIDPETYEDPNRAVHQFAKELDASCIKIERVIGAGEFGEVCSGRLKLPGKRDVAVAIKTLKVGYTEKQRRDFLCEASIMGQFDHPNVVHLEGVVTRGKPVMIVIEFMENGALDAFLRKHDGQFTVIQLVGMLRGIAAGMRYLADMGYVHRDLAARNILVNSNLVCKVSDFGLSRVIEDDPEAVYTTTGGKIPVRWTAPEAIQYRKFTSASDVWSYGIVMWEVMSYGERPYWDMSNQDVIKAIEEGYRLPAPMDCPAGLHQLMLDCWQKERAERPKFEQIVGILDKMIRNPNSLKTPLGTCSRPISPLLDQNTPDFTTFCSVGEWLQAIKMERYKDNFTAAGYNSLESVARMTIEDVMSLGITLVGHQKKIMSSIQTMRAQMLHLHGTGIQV
Text: (§1) Detailed information on the assay conditions is available on the website of Carna Biosciences (http://www.carnabio.com/english/index.html; Kobe, Japan). In brief, full-length human recombinant kinases were expressed using a baculovirus expression system as amino-terminal GST-fusion proteins, and purified by glutathione-Sepharose chromatography. The GenBank accession numbers of DYRK1A, DYRK1B, DYRK2, and DYRK3 were NP_001387.2, NP_004705.1, NP_003574.1, and NP_003573.2. Kinase activities were evaluated by Off-chip Mobility Shift Assay after reaction of 1 μM of the substrate DYRKtide-F with ATP (25 μM for DYRK1A, 50 μM for DYRK1B, 10 μM for DYRK2, and 5 μM for DYRK3). For each compound, a DMSO solution was diluted in assay buffer to yield a final concentration of 1% DMSO. After incubation for one hour at room temperature, substrate phosphorylation was analyzed by electrophoretic separation of the substrate and products using a Caliper LC3000 platform (Caliper Life Sciences, Mountain View, CA, USA). The phosphorylated product (P)/(P + substrate) ratio was calculated at each concentration of each small molecule and the percent inhibition was expressed relative to a control assay in the absence of the small molecule. […] The IC50 of each compound was calculated by interpolation on a log-concentration-response curve fitted with a four-parameter logistic equation.
(§2) All kinase assays were carried out at Carna Biosciences. The inhibitory map was made with Kinome Render[36].

TRKB = target: T3, TRKB (Homo sapiens, UniProt Q16620); experiment: Kinase panel, CaNDY 1 µM; assay type: biochemical; conditions: CaNDY 1 µM relative to DMSO
T3 construct: purchased Carna Biosciences
Text: as §1, §2

AKT3 = target: T4, AKT3 (Homo sapiens, UniProt Q9Y243); experiment: Kinase panel, CaNDY 1 µM; assay type: biochemical; conditions: CaNDY 1 µM relative to DMSO
T4 construct: purchased Carna Biosciences
Text: as §1, §2

PDGFRα = target: T5, PDGFRα (Homo sapiens, UniProt P16234); experiment: Kinase panel, CaNDY 1 µM; assay type: biochemical; conditions: CaNDY 1 µM relative to DMSO
T5 construct: purchased Carna Biosciences
T5 sequence (P16234 24-1089): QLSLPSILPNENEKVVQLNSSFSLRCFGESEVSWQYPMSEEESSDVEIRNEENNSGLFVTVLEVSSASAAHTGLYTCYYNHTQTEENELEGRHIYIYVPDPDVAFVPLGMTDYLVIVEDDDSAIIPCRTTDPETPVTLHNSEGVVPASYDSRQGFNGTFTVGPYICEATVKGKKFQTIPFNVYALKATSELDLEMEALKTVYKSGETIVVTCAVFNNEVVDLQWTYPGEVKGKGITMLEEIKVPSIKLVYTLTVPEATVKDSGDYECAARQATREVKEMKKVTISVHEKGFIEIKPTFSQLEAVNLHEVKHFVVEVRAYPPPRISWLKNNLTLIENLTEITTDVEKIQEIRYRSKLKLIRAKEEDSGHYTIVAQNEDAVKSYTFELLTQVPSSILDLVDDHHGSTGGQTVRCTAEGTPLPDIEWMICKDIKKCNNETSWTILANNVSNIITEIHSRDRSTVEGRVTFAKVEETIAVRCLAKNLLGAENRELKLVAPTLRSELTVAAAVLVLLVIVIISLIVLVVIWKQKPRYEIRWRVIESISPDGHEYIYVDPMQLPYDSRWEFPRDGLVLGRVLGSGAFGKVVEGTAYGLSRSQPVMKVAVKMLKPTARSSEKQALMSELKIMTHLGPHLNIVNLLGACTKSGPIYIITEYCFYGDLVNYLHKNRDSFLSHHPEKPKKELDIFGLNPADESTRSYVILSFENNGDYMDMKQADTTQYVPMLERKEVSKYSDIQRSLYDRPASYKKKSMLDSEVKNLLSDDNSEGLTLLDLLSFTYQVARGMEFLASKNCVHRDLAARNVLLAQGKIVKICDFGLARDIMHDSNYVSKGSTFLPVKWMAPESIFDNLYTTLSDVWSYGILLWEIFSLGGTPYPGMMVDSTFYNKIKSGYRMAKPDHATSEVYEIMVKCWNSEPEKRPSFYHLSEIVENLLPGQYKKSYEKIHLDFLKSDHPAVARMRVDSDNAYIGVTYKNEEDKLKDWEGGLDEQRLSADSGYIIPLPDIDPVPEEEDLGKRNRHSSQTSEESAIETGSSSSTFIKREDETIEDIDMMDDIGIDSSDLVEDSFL
Text: as §1, §2

EGFR(L861Q) = target: T6, EGFR(L861Q) (Homo sapiens, UniProt P00533, L861Q); experiment: Kinase panel, CaNDY 1 µM; assay type: biochemical; conditions: CaNDY 1 µM relative to DMSO
T6 construct: purchased Carna Biosciences
Text: as §1, §2

FES = target: T7, FES (Homo sapiens, UniProt P07332); experiment: Kinase panel, CaNDY 1 µM; assay type: biochemical; conditions: CaNDY 1 µM relative to DMSO
T7 construct: purchased Carna Biosciences
T7 sequence (P07332 whole entry): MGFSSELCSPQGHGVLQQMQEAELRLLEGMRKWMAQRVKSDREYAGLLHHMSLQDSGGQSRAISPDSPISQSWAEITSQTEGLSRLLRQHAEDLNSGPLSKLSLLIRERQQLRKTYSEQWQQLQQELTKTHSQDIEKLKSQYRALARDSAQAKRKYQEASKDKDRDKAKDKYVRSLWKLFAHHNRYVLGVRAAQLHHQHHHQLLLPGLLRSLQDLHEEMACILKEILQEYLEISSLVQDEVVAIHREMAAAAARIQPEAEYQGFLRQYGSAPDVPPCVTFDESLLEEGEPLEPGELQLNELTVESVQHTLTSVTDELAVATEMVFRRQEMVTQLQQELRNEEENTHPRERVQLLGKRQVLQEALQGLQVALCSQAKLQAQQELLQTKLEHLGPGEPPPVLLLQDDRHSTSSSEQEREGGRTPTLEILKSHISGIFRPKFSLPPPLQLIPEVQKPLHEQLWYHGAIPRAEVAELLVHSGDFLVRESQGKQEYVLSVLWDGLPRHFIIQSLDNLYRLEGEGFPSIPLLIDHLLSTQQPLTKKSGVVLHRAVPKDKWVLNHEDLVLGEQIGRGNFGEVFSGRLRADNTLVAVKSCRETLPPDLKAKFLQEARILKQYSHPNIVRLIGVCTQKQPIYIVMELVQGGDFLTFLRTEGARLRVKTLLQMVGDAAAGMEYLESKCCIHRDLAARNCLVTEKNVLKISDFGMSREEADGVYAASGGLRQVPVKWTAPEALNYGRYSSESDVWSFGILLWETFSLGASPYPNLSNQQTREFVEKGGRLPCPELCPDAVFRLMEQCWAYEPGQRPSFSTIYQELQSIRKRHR
Text: as §1, §2

EPHB3 = target: T8, EPHB3 (Homo sapiens, UniProt P54753); experiment: Kinase panel, CaNDY 1 µM; assay type: biochemical; conditions: CaNDY 1 µM relative to DMSO
T8 construct: purchased Carna Biosciences
Text: as §1, §2

MLK3_Cascade = target: T9, MLK3_Cascade (Homo sapiens, UniProt Q16584); experiment: Kinase panel, CaNDY 1 µM; assay type: biochemical; conditions: CaNDY 1 µM relative to DMSO
T9 construct: purchased Carna Biosciences
Text: as §1, §2

MRCKβ = target: T10, MRCKβ (Homo sapiens, UniProt Q9Y5S2); experiment: Kinase panel, CaNDY 1 µM; assay type: biochemical; conditions: CaNDY 1 µM relative to DMSO
T10 construct: purchased Carna Biosciences
Text: as §1, §2

PDGFRβ = target: T11, PDGFRβ (Homo sapiens, UniProt P09619); experiment: Kinase panel, CaNDY 1 µM; assay type: biochemical; conditions: CaNDY 1 µM relative to DMSO
T11 construct: purchased Carna Biosciences
Text: as §1, §2

RSK3 = target: T12, RSK3 (Homo sapiens, UniProt Q15349); experiment: Kinase panel, CaNDY 1 µM; assay type: biochemical; conditions: CaNDY 1 µM relative to DMSO
T12 construct: purchased Carna Biosciences
Text: as §1, §2

MELK = target: T13, MELK (Homo sapiens, UniProt Q14680); experiment: Kinase panel, CaNDY 1 µM; assay type: biochemical; conditions: CaNDY 1 µM relative to DMSO
T13 construct: purchased Carna Biosciences
Text: as §1, §2

HIPK2 = target: T14, HIPK2 (Homo sapiens, UniProt Q9H2X6); experiment: Kinase panel, CaNDY 1 µM; assay type: biochemical; conditions: CaNDY 1 µM relative to DMSO
T14 construct: purchased Carna Biosciences
Text: as §1, §2

MSSK1 = target: T15, MSSK1 (Homo sapiens, UniProt Q9UPE1); experiment: Kinase panel, CaNDY 1 µM; assay type: biochemical; conditions: CaNDY 1 µM relative to DMSO
T15 construct: purchased Carna Biosciences
Text: as §1, §2

RET(Y791F) = target: T16, RET(Y791F) (Homo sapiens, UniProt P07949, Y791F); experiment: Kinase panel, CaNDY 1 µM; assay type: biochemical; conditions: CaNDY 1 µM relative to DMSO
T16 construct: purchased Carna Biosciences
T16 sequence (P07949 29-1114 Y791F): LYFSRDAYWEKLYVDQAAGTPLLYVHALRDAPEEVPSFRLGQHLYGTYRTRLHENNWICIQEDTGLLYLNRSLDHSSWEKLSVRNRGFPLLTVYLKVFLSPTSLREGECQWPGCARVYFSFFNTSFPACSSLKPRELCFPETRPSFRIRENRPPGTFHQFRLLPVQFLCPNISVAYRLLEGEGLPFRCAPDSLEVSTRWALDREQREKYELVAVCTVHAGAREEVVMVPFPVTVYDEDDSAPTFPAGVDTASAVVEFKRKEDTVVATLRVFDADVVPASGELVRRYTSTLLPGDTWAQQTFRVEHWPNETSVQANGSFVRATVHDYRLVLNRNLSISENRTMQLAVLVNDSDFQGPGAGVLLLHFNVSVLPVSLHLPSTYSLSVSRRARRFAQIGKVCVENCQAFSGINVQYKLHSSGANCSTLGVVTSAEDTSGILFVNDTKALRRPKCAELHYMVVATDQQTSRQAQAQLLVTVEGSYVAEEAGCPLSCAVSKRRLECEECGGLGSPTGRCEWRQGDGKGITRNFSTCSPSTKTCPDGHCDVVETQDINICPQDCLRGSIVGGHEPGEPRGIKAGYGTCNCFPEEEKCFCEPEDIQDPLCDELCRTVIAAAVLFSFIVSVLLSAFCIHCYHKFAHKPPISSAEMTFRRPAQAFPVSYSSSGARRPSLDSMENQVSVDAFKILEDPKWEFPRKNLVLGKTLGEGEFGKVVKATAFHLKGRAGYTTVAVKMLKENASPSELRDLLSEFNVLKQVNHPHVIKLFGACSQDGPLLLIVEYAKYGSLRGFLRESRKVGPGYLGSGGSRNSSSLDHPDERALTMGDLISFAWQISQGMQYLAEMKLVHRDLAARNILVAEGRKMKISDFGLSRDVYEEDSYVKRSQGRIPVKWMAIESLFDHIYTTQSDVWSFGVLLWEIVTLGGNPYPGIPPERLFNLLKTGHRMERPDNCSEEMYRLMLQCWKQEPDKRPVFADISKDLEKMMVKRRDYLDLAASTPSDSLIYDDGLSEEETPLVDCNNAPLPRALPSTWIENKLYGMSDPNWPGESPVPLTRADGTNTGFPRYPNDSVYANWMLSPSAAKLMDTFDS
Text: as §1, §2

TNIK = target: T17, TNIK (Homo sapiens, UniProt Q9UKE5); experiment: Kinase panel, CaNDY 1 µM; assay type: biochemical; conditions: CaNDY 1 µM relative to DMSO
T17 construct: purchased Carna Biosciences
Text: as §1, §2

FMS = target: T18, FMS (Homo sapiens, UniProt P07333); experiment: Kinase panel, CaNDY 1 µM; assay type: biochemical; conditions: CaNDY 1 µM relative to DMSO
T18 construct: purchased Carna Biosciences
Text: as §1, §2

AurB = target: T19, AurB (Homo sapiens, UniProt Q96GD4); experiment: Kinase panel, CaNDY 1 µM; assay type: biochemical; conditions: CaNDY 1 µM relative to DMSO
T19 construct: purchased Carna Biosciences
T19 sequence (Q96GD4 whole entry): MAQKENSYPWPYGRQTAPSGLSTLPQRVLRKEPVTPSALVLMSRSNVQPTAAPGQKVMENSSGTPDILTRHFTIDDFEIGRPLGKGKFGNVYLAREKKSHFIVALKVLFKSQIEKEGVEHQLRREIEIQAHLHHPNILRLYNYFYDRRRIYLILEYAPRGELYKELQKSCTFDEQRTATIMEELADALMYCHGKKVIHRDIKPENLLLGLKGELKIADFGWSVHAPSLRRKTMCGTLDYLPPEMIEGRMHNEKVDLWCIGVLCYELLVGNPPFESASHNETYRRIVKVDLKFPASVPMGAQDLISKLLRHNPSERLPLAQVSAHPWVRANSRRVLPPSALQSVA
T19 sequence (Q9NQS7 803-918 partner limits assumed): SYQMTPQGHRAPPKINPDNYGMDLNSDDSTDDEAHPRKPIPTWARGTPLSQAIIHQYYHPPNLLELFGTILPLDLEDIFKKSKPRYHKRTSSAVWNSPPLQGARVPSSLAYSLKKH
Text: as §1, §2

CaMK2α = target: T20, CaMK2α (Homo sapiens, UniProt Q9UQM7); experiment: Kinase panel, CaNDY 1 µM; assay type: biochemical; conditions: CaNDY 1 µM relative to DMSO
T20 construct: purchased Carna Biosciences
T20 sequence (Q9UQM7 whole entry): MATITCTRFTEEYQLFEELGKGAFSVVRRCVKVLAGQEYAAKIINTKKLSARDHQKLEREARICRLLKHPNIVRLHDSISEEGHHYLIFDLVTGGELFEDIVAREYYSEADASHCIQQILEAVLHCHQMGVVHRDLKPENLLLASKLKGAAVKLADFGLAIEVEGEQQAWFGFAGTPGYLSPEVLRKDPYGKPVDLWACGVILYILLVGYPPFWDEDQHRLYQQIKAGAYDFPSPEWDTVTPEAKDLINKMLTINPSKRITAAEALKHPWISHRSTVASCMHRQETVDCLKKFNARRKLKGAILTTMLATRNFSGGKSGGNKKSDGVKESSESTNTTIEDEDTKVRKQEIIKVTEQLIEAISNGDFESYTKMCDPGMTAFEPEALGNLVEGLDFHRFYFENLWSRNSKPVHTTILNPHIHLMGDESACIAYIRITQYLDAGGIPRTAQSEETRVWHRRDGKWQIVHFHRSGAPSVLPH
Text: as §1, §2

## [H]/N=C1/NC(=O)C(=Cc2ccc3c(c2)CCO3)S1 [CaNDY, (Z)-5-[(2,3-dihydrobenzofuran-5-yl)methylene]-2-iminothiazolidin-4-one]
mRNA coding for DYRK1A
  expression of mRNA coding for DYRK1A: slightly decreased
GST-tagged human DYRK1A; competitive inhibition model, 2.5–40 μM ATP
  Ki: 1.92 nM
GST-tagged human DYRK1A; double-reciprocal plots
  mode of inhibition: competed with ATP on a single site of DYRK1A
EPHA7
  remaining activity at 1 µM: 97.6%
TRKB
  remaining activity at 1 µM: 101%
AKT3
  remaining activity at 1 µM: 104%
PDGFRα
  remaining activity at 1 µM: 84.1%
EGFR(L861Q)
  %Activity: 103.3%
FES
  remaining activity at 1 µM: 109%
EPHB3
  remaining activity at 1 µM: 98.6%
MLK3_Cascade
  %Activity: 100.9%
MRCKβ
  remaining activity at 1 µM: 82.5%
PDGFRβ
  remaining activity at 1 µM: 91.7%
RSK3
  remaining activity at 1 µM: 91.4%
MELK
  remaining activity at 1 µM: 91.5%
HIPK2
  remaining activity at 1 µM: 22.6%
MSSK1
  remaining activity at 1 µM: 98%
RET(Y791F)
  remaining activity at 1 µM: 100%
TNIK
  remaining activity at 1 µM: 60%
FMS
  remaining activity at 1 µM: 101%
AurB
  remaining activity at 1 µM: 95.1%
CaMK2α
  remaining activity at 1 µM: 104%
